Laboratory results published in patent US20230183266A1, “CRYSTALLINE FORMS OF RET INHIBITOR AND PREPARATION THEREOF” (LOXO ONCOLOGY, INC., priority 2021, published 2023).
≈ marks a conversion by molar mass, not a printed value.

Experiments:
Assay type in all cases: physicochemical
[1] = solid-form stability (thermodynamic stability, form conversion on storage, isolation and drying)
Text: (§1) In some embodiments, removal of the solvent molecule(s) from selpercatinib in solvated form can provide for selpercatinib Form A.
As noted above, selpercatinib can form solvates; and it can also form metastable solid forms, both of which are generally not stable on drying. […] The solvates and metastable forms usually revert to Form A during isolation and/or drying, although films or amorphous material occasionally form. The chloroform and 1,4-dioxane solvates were stable upon isolation/drying. Thus, one strategy for preparing selpercatinib Form A is to convert amorphous selpercatinib and/or selpercatinib Form B into a solvate and then desolvating the solvate, to afford Form A.
In one preferred embodiment, the Form A material is washed with MTBE or heptane and then dried under vacuum at a temperature of about 40 to about 45° C.
The formation of the solvate appears to remove any dependence on, or effect from, the seed crystal form.

[2] = hygroscopicity of the anhydrous polymorphs; conditions: Form A compared with Form B
Text: as §1

[3] = solubility of crystalline forms in organic solvents
Text: Forms A and B have similar solubilities.

SMILES	thermodynamic stability ([1]; Form A compared with Form B)	interconversion of polymorphs ([1]; typical storage or preparative conditions)	form conversion on drying of wet cake ([1]; wet cake dried at 45° C., ambient pressure, over several days)	hygroscopicity [2]	solubility in many organic solvents ([3]; 25° C., methyl ethyl ketone (MEK), acetone, many alcohol based solvents)	solubility ([3]; organic solvents: dichloromethane, dimethylsulfoxide, organic solvent or mixture, moderate solubility, 25° C., DCM, DMSO, THF)	solubility in anisole ([3]; anisole)
COc1ccc(CN2C3CC2CN(c2ccc(-c4cc(OCC(C)(C)O)cn5ncc(C#N)c45)cn2)C3)cn1 [Form A, 6-(2-hydroxy-2-methylpropoxy)-4-(6-(6-((6-methoxypyridin-3-yl)methyl)-3,6-diazabicyclo[3.1.1]heptan-3-yl)pyridin-3-yl)pyrazolo[1,5-a]pyridine-3-carbonitrile]	thermodynamically less stable	do not readily inter-convert	slowly converted the Form A to Form B	slightly more hygroscopic	poor	3 to 30 mg/mL (≈ 5.71 to 57.1 mM)	–
COc1ccc(CN2C3CC2CN(c2ccc(-c4cc(OCC(C)(C)O)cn5ncc(C#N)c45)cn2)C3)cn1 [Form B, 6-(2-hydroxy-2-methylpropoxy)-4-(6-(6-((6-methoxypyridin-3-yl)methyl)-3,6-diazabicyclo[3.1.1]heptan-3-yl)pyridin-3-yl)pyrazolo[1,5-a]pyridine-3-carbonitrile]	–	–	–	–	–	–	almost no solubility
